The values below come from patent publication US20260334439A1, “BCAT2 INHIBITORS” (Agios Pharmaceuticals, Inc., priority 2023, published 2026).

For assay [1], the target named is T1, BCAT2 (Homo sapiens, UniProt O15382).
T1 sequence (O15382 28-392): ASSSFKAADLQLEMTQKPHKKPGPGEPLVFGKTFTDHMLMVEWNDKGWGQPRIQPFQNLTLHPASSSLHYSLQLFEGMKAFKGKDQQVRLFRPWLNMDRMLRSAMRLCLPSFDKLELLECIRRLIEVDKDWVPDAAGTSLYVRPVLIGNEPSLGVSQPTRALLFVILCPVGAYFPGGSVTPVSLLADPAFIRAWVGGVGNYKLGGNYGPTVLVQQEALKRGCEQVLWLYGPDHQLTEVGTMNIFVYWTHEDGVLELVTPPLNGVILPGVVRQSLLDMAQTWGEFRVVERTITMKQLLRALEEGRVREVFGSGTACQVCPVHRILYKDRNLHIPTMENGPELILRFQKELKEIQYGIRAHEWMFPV
In words: BCAT2 in vitro enzyme inhibition assay (hBCAT2, glutamate dehydrogenase/diaphorase/resazurin coupled fluorescence read). It counts as biochemical. As to conditions: hBCAT2, 1 h preincubation at 25° C., one hour reaction; average where tested multiple times. In outline: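 hBCAT2 (0.33 μg/mL in mix) preincubated 1 h at 25 °C with compound (top 100 μM, 3-fold, 10 points) in Tris pH 8.0/NaCl/BSA; substrate mix added (L-leucine, α-ketoglutarate, GDH, NAD, diaphorase, resazurin), quenched with SDS after 1 h, fluorescence Ex 540/Em 590; duplicates, repeat tests averaged.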
On the technique in general: Resazurin is reduced to fluorescent resorufin, in cell work by metabolically active cells.

Assay [2] deals with T1, BCAT2. In words: BCAT2 cell inhibition using engineered A549 cells (MUT KO, BCAT1 KO; 13C6-KMV formation by LC-MS/MS). Also noted: expressed endogenous BCAT2; endogenous in cells; host or cells: A549 cells, MUT knockout and BCAT1 knockout. It counts as cell-based. The source says: Endogenous Methylmalonyl-CoA Mutase (MUT) and Branched Chain Aminotransferase 1 (BCAT1) in A549 cells was knocked out by CRISPR/CAS9 using the targeting system from TransOMIC Technologies. The following guide sequence was cloned into pCLIP-ALL-EFS-Blast vector to target human MUT: […] (SEQ ID NO: 35). The following guide sequence was cloned into pCLIP-ALL-EFS-Puro vector to target human BCAT1: […] (SEQ ID NO: 36). The resulting plasmids were co-transfected into 293T cells with VSV-G, P-PEX, and Fugene-6. Lentivirus was harvested and A549 cells were first transduced with lentivirus targeting MUT and polybrene. After genetic selection with blasticidin clonal selection was performed and validated via western blot analysis to confirm MUT was no longer expressed. These MUT KO cells were then transduced with lentivirus targeting BCAT1 and polybrene. After selection with puromycin clonal selection was performed and clones were validated via western blot analysis to confirm BCAT1 was no longer expressed in these cells. The result was an engineered A549 cell line that expressed endogenous BCAT2.
For KMV cell assays, on day 1, 25,000 cells/100 μL EMEM (10% FBS) were seeded in each well of a 96-well plate. On day 2, medium was replaced with 50 μL fresh EMEM (10% dialyzed FBS) containing 2× the assay concentration of experimental compound. After 15 minutes, 50 μL of 800 uM ^15N,^13C6-Isoleucine in EMEM (10% dialyzed FBS) was added to each well and incubated for 24 hours. On day 3, 50 μL of media from each well was collected and transferred to another 96-well plate for ^13C6-3-Methyl-2-Oxopentanoic Acid (KMV) analysis via LC-MS/MS. In the remaining assay wells 50 μL of Promega Glo CTG reagent was added and luminescence was measured as a cell viability readout.
For LC-MS/MS analysis 5 μL of cell assay media from each well was transferred to a 96-well plate and 45 μL of ACN:0.1% NaOH (50:50, v/v)^+0.20 nM d8-KMV was added and mixed on a shaker. 15 μL was transferred to a new 96-well plate and 15 μL of 10 mg/mL PFBHA solution was added and mixed on the shaker. The reaction was placed on ice for 30 minutes and quenched with 10 μL of ACN: Acetone (50:50, v/v) on a shaker. The resulting mixture was diluted with 100 μL of ACN:0.1% NaOH (50:50, v/v) on a shaker. 10 μL of sample were injected on the Shimadzu 20AD LC-MS/MS to quantify ^13C6-KMV.
Where a compound was tested multiple times, the average value of the tests is reported.

The IC50 is the concentration that gives 50% inhibition.

Take `N#Cc1ccc(F)c(C(=O)N[C@H]2CCC[C@@H](n3c(-c4ccccc4F)nc4cnc(-c5nc[nH]n5)cc43)C2)c1` [Example 77, 5-cyano-2-fluoro-N-((1S,3R)-3-(2-(2-fluorophenyl)-6-(1H-1,2,4-triazol-3-yl)-1H-imidazo[4,5-c]pyridin-1-yl)cyclohexyl)benzamide]: the IC50 in assay [1] was less than 100 nM; in assay [2] it was 100 to 500 nM.
Take `O=C1c2cc(F)ccc2CN1[C@H]1CCC[C@@H](n2c(-c3ccccc3F)nc3cnc(-c4ncccc4F)cc32)[C@@H]1O` [Example 190, 6-fluoro-2-((1S,2S,3R)-3-(2-(2-fluorophenyl)-6-(3-fluoropyridin-2-yl)-1H-imidazo[4,5-c]pyridin-1-yl)-2-hydroxycyclohexyl)isoindolin-1-one]: the IC50 in assay [2] is less than 100 nM.
Consider `CN1C[C@@H](NC(=O)c2cc(F)ccc2F)C[C@@H](n2c(-c3ccccc3OCCO)nc3cnc(-n4nccn4)cc32)C1` [Example 154, 2,5-difluoro-N-((3S,5R)-5-(2-(2-(2-hydroxyethoxy)phenyl)-6-(2H-1,2,3-triazol-2-yl)-1H-imidazo[4,5-c]pyridin-1-yl)-1-methylpiperidin-3-yl)benzamide], for which the IC50 in assay [1] was greater than 1000 nM.
In assay [1], `CN1C[C@H](NC(=O)c2cc(F)ccn2)C[C@H](n2c(-c3ccccc3OCCO)nc3ccc(-c4ncccn4)cc32)C1` [Example 236, 4-fluoro-N-((3R,5S)-5-(2-(2-(2-hydroxyethoxy)phenyl)-6-(pyr-imidin-2-yl)-1H-benzo[d]imid-azol-1-yl)-1-methylpiperidin-3-yl)picolinamide] gave an IC50 of 100 to 500 nM.
The same measure, in the same setting: in the case of `COc1ccc(Cl)cc1C(=O)N[C@@H]1CCCC[C@H](n2c(-c3c(F)cccc3OC)nc3cnc(-c4nc[nH]n4)cc32)[C@H]1O` [Example 109, 5-chloro-N-((1R,2S,3S)-3-(2-(2-fluoro-6-methoxyphenyl)-6-(1H-1,2,4-triazol-3-yl)-1H-imidazo[4,5-c]pyridin-1-yl)-2-hydroxycycloheptyl)-2-methoxybenzamide] it was 500 to 1000 nM; in that of `CN1C[C@@H](NC(=O)c2cc(Cl)ccc2F)C[C@@H](n2c(-c3ccccc3F)nc3cnc(-c4nc[nH]n4)cc32)C1` [Example 144, 5-chloro-2-fluoro-N-((3S,5R)-5-(2-(2-fluorophenyl)-6-(1H-1,2,4-triazol-3-yl)-1H-imidazo[4,5-c]pyridin-1-yl)-1-methylpiperidin-3-yl)benzamide], 100 to 500 nM; in that of `CC(CCO)Cc1nc2cnc(-c3nc[nH]n3)cc2n1[C@@H]1CCC[C@H](NC(=O)c2cc(Cl)ccn2)C1` (stereo partly drawn) [Example 96, 4-chloro-N-((1S,3R)-3-(2-(4-hydroxy-2-methylbutyl)-6-(1H-1,2,4-triazol-3-yl)-1H-imidazo[4,5-c]pyridin-1-yl)cyclohexyl)picolinamide], greater than 1000 nM.
In assay [1], `CC(=O)N1C[C@@H](N2Cc3ccc(F)cc3C2=O)C[C@@H](n2c(-c3ccccc3F)nc3cnc(-n4nccn4)cc32)C1` [Example 199, 2-((3S,5R)-1-acetyl-5-(2-(2-fluorophenyl)-6-(2H-1,2,3-triazol-2-yl)-1H-imidazo[4,5-c]pyridin-1-yl)piperidin-3-yl)-6-fluoroisoindolin-1-one] showed an IC50 of less than 100 nM.
The same measure, in the same setting: in the case of `CC(C)Oc1ccc(Cl)cc1C(=O)N[C@H]1CCC[C@@H](n2c(-c3ncccc3OC(F)F)nc3cnc(-c4nc[nH]n4)cc32)C1` [compound 65] it was less than 100 nM.
The molecule `COc1ccc(Cl)cc1C(=O)N[C@H]1C[C@@H](n2c(-c3ccccc3F)nc3cnc(-c4nc[nH]n4)cc32)CN(C)C1` [Example 135, 5-chloro-N-((3S,5R)-5-(2-(2-fluorophenyl)-6-(1H-1,2,4-triazol-3-yl)-1H-imidazo[4,5-c]pyridin-1-yl)-1-methylpiperidin-3-yl)-2-methoxybenzamide] had an IC50 in assay [1] of 500 to 1000 nM.
In assay [1], `CN1C[C@@H](NC(=O)c2cc(F)ccn2)C[C@@H](n2c(-c3ccccc3OCCO)nc3cnc(-c4ncccn4)cc32)C1` [Example 162, 4-fluoro-N-((3S,5R)-5-(2-(2-(2-hydroxyethoxy)phenyl)-6-(pyrimidin-2-yl)-1H-imidazo[4,5-c]pyridin-1-yl)-1-methylpiperidin-3-yl)picolinamide] displayed an IC50 of 500 to 1000 nM.
`O=C1c2cc(Cl)ccc2OCCN1[C@H]1CCC[C@@H](n2c(-c3ccccc3F)nc3cnc(-c4nc[nH]n4)cc32)C1` [Example 216, 7-chloro-4-((1S,3R)-3-(2-(2-fluorophenyl)-6-(1H-1,2,4-triazol-3-yl)-1H-imidazo[4,5-c]pyridin-1-yl)cyclohexyl)-3,4-dihydrobenzo[f][1,4]oxazepin-5(2H)-one] registered an IC50 in assay [1] greater than 1000 nM.
Take `CN1C[C@H](NC(=O)c2cc(F)ccn2)C[C@H](n2c(-c3ccccc3OCCO)nc3cnc(-c4ncccn4)cc32)C1` [Example 163, 4-fluoro-N-((3R,5S)-5-(2-(2-(2-hydroxyethoxy)phenyl)-6-(pyrimidin-2-yl)-1H-imidazo[4,5-c]pyridin-1-yl)-1-methylpiperidin-3-yl)picolinamide]: the IC50 in assay [1] is less than 100 nM.
As to `CO[C@H]1C[C@@H](NC(=O)c2cc(F)ccn2)C[C@@H](n2c(-c3ccccc3F)nc3cnc(-c4nc[nH]n4)cc32)C1` [Example 115, 4-fluoro-N-((1S,3R,5S)-3-(2-(2-fluorophenyl)-6-(1H-1,2,4-triazol-3-yl)-1H-imidazo[4,5-c]pyridin-1-yl)-5-methoxycyclohexyl)picolinamide], the IC50 in assay [1] is 100 to 500 nM.
`Cc1coc(-c2cc3c(cn2)nc(-c2ccccc2F)n3[C@@H]2CCC[C@H](NC(=O)c3cc(F)ccc3F)[C@H]2O)n1` [Example 125, 2,5-difluoro-N-((1S,2R,3R)-3-(2-(2-fluorophenyl)-6-(4-methyloxazol-2-yl)-1H-imidazo[4,5-c]pyridin-1-yl)-2-hydroxycyclohexyl)benzamide] returned an IC50 in assay [1] of less than 100 nM.
Regarding `N[C@@H]1[C@@H](NC(=O)c2cc(F)ccc2F)CCC[C@H]1n1c(-c2ccccc2F)nc2cnc(-c3nc[nH]n3)cc21` [Example 127, N-((1S,2R,3R)-2-amino-3-(2-(2-fluorophenyl)-6-(1H-1,2,4-triazol-3-yl)-1H-imidazo[4,5-c]pyridin-1-yl)cyclohexyl)-2,5-difluorobenzamide], the IC50 in assay [1] is less than 100 nM.
Still for that read-out and setting: in the case of `N[C@H]1[C@H](n2c(-c3ccccc3F)nc3ccc(-c4nc[nH]n4)cc32)CCC[C@@H]1N1Cc2ccc(Cl)cc2C1=O` [Example 242, 2-((1S,2S,3R)-2-amino-3-(2-(2-fluorophenyl)-6-(1H-1,2,4-triazol-3-yl)-1H-benzo[d]imidazol-1-yl)cyclohexyl)-6-chloroisoindolin-1-one] it was less than 100 nM; in that of `CC(Oc1ccccc1-c1nc2cnc(-c3nc[nH]n3)cc2n1[C@@H]1CCC[C@H](NC(=O)c2cc(Cl)ccn2)C1)C(F)(F)F` (stereo partly drawn) [Example 92, N-((1S,3R)-3-(6-(1H-1,2,4-triazol-3-yl)-2-(2-((1,1,1-trifluoropropan-2-yl)oxy)phenyl)-1H-imidazo[4,5-c]pyridin-1-yl)cyclohexyl)-4-chloropicolinamide], greater than 1000 nM; in that of `CCN1C[C@@H](NC(=O)c2cc(F)ccn2)C[C@@H](n2c(-c3ccccc3F)nc3cnc(-c4nc[nH]n4)cc32)C1` [Example 149, N-((3S,5R)-1-ethyl-5-(2-(2-fluorophenyl)-6-(1H-1,2,4-triazol-3-yl)-1H-imidazo[4,5-c]pyridin-1-yl)piperidin-3-yl)-4-fluoropicolinamide], 500 to 1000 nM.
